Consider one molecule from patent publication US20240076615A1, “MODELS AND METHODS FOR RAPID SCREENING OF THE EFFICACY OF IMMUNOREGULATING DRUGS” (priority 2022, published 2024).

This experiment concerns tumor cells and immune cells of a patient with ovarian cancer. The experiment is described as follows: IO-FIVE capsule tube test in mice, ovarian cancer patient (Example 3), CTG and FACS. Type of experiment: in vivo, human. The following applies: day 10; tumor sample after addition of autologous TIL cells.

Description: The following was collected for cell identification: a single cell suspension of tumor tissue samples of patients before purification, tumor cells after purification, enriched immune cells (containing CD3+T) eluted from the column, and a cell suspension in which tumor cells after purification and immune cells were mixed in a certain ratio (1.5:1 to 15:1), to yield a final cell count of 0.1 to 0.3 million cells. (Note that if the viability of immune cells eluted from the column was less than 20%, then downstream experiments and operations could not be performed, especially since activated immune cells were more likely to undergo activation-induced apoptosis). […]
According to the data analyzed in step of flow cytometry, the CD45− tumor cells and CD3+ T cells were mixed in a certain ratio (about 1.5:1-15:1). […]
3-21 days after administration (day 10 here), the mice were euthanized, and the PVDF tubes were removed. Cell viability was quantified by the CellTiter-Glo chemiluminescence method, and the relative ratio and basic phenotype of tumor cells and immune cells in PVDF tubes were detected by flow cytometry.
The results were analyzed by Flowjo software.

In the case of `NC(=O)c1cccc2cn(-c3ccc([C@@H]4CCCNC4)cc3)nc12` [PARP inhibitor, Niraparib], the “viability of total cells / overall tumor viability (CTG)” value was “neither PD1 antibody nor PARP inhibitor mono-therapy could inhibit”.
